For this test, the target named is T1, NDM-1 (Klebsiella pneumoniae, UniProt C7C422).
T1 construct: gene blaNDM-1; recombinant, expressed in E. coli
T1 sequence (C7C422 29-270 limits assumed): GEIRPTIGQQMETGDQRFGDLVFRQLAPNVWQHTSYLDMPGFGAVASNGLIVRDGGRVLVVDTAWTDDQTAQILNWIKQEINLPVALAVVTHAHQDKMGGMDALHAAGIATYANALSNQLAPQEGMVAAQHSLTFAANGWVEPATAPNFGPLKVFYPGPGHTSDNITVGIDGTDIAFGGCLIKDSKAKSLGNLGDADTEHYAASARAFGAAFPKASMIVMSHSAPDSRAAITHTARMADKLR
Description: fluorescence enzyme assay, fluorocillin hydrolysis. It is filed as biochemical. The text has this:
fluorescence enzyme assay, fluorocillin hydrolysis on NDM-1
One may read the IC50 as the concentration needed to halve the response being measured. The low end stands for inhibition by little substance, the high end for a need for much substance. Compound `O=C(O)[C@H]1CCCCN1C(=O)C(CS)Cc1cccc(O)c1O` (stereo partly drawn) [compound 2, (2R)-1-(2-(2,3-dihydroxybenzyl)-3-mercaptopropanoyl)piperidine-2-carboxylic acid] had a concentration for half-maximal inhibition (IC50) of 4300 ± 440 nM.
As for `C[C@H](CS)C(=O)N1CCN(C(=O)CCc2ccc(O)c(O)c2)C[C@@H]1C(=O)O` [compound 3, (R)-4-(3-(3,4-dihydroxyphenyl)propanoyl)-1-((S)-3-mercapto-2-methylpropanoyl)piperazine-2-carboxylic acid], the figure is 130 ± 17 nM; as for `COc1cccc(CC(CS)C(=O)N2CCCC[C@@H]2C(=O)O)c1OC` (stereo partly drawn) [compound 12, (2R)-1-(2-(2,3-dimethoxybenzyl)-3-mercaptopropanoyl)piperidine-2-carboxylic acid], 1900 ± 270 nM; as for `COc1ccc(CCC(=O)N2CCN(C(=O)[C@H](C)CS)[C@@H](C(=O)O)C2)cc1OC` [compound 18, (R)-4-(3-(3,4-dimethoxyphenyl)propanoyl)-1-((S)-3-mercapto-2-methylpropanoyl)piperazine-2-carboxylic acid], 220 ± 16 nM.

Source of the values: publication PMC9962638, “Integrating Siderophore Substructures in Thiol-Based Metallo-β-Lactamase Inhibitors” (Molecules, 2023).
